In patent publication US20150125402A1, “ANTIMICROBIAL AGENTS” (BEDOUKIAN RESEARCH, INC., priority 2012, published 2015) one finds MIC and inhibition data, which are given here for 4 compounds.

Converted amounts (≈) assume the structure as drawn. Some results are limits rather than exact numbers.

Holding throughout (type): cell-based
In one assay the test system is Aspergillus brasiliensis. Put plainly: Minimum Inhibition Concentration (MIC) screen. The settings on record: strain ATTC 16404. Here is the method: (§1) To test the compounds as antimicrobial agents, the compounds were screened for activity to inhibit bacteria, yeast and mold. The Minimum Inhibition Concentration (MIC) is determined as the lowest concentration activity to inhibit the microorganism.

In another assay the test system is Pseudomonas aeruginosa. Put plainly: Minimum Inhibition Concentration (MIC) screen. The settings on record: strain ATTC 15442. Here is the method: as §1
Assay [1] deals with Staphylococcus aureus. Put plainly: Minimum Inhibition Concentration (MIC) screen. The settings on record: strain ATTC 6538. As to the method:
as §1

The test system of assay [2] is Escherichia coli. In words: Minimum Inhibition Concentration (MIC) screen. The settings on record: strain ATTC 10536. Here is the method:
as §1

In another assay the test system is Candida albicans. In words: Minimum Inhibition Concentration (MIC) screen. As to conditions: strain ATTC 10231. As to the method:
as §1

The subject of assay [3] is Staphylococcus epidermidis. Put plainly: Minimum Inhibition Concentration (MIC) screen. The settings on record: strain ATTC 12228. Here is the method:
as §1

The test system of assay [4] is Staphylococcus aureus. In words: Bactericidal activity in solution (Activity % Reduction). As to conditions: 2000 ppm in water at ambient temperature. As to the method: (§2) In a second assay, compounds of this invention were screened for activity to kill bacteria in solution over a short period of time. Bactericidal activity is expressed as Activity % Reduction. All samples were tested in water at ambient temperature and at a concentration of 2000 ppm.

In assay [5] the test system is Escherichia coli. Described as above. As to conditions: 2000 ppm in water at ambient temperature. Here is the method: as §2

With `CCCCCCCC1CC(=O)C=C(C)C1` (stereo not shown) [3-Methyl-5-Heptyl-2-Cyclohexenone, 3-methyl-5-heptyl-2-cyclohexenone], the MIC – broadly, the lowest concentration found to suppress growth – in the assay on Aspergillus brasiliensis is above 1000 µg/mL; with Pseudomonas aeruginosa, above 1000 µg/mL; in the assay with Staphylococcus aureus [1], 15.6 µg/mL (≈ 0.0749 mM); in the assay on Escherichia coli [2], above 1000 µg/mL; in the assay on Candida albicans, above 1000 µg/mL; in assay [3] it was 31.2 µg/mL (≈ 0.15 mM). Further, the inhibition (commonly the relative decrease from the control value, in per cent) at 2000 ppm was determined as 37.6% with Staphylococcus aureus [4] (5 min), 24.1% in the assay on Staphylococcus aureus [4] (1 hour), 13.9% in the assay on Escherichia coli [5] (5 min) and 25% in the assay with Escherichia coli [5] (1 hour).

Regarding `CCCC1CC(=O)C=C(C)C1` (stereo not shown) [3-Methyl-5-Propyl-2-Cyclohexenone, 3-methyl-5-propyl-2-cyclohexenone], the minimal inhibitory concentration (MIC) is 500 µg/mL (≈ 3.28 mM) against Aspergillus brasiliensis; above 1000 µg/mL with Pseudomonas aeruginosa; 1000 µg/mL (≈ 6.57 mM) against Staphylococcus aureus [1]; 1000 µg/mL (≈ 6.57 mM) against Escherichia coli [2]; 1000 µg/mL (≈ 6.57 mM) in the assay with Candida albicans; above 1000 µg/mL in assay [3]. Also, the inhibition at 2000 ppm in the assay with Staphylococcus aureus [4] (5 min) amounted to 29.2%; in the assay on Staphylococcus aureus [4] (1 hour), 33.9%; in the assay on Escherichia coli [5] (5 min), 69.5%; in the assay with Escherichia coli [5] (1 hour), 99%.

On to `CCCCC1CC(=O)C=C(C)C1` (stereo not shown) [3-Methyl-5-Butyl-2-Cyclohexenone, 3-methyl-5-butyl-2-cyclohexenone], for which the MIC against Aspergillus brasiliensis is 250 µg/mL (≈ 1.5 mM); with Pseudomonas aeruginosa, above 1000 µg/mL; against Staphylococcus aureus [1], 500 µg/mL (≈ 3.01 mM); against Escherichia coli [2], 500 µg/mL (≈ 3.01 mM); against Candida albicans, 500 µg/mL (≈ 3.01 mM); in assay [3] it was 1000 µg/mL (≈ 6.01 mM). In addition, the inhibition at 2000 ppm came out at 33.9% in the assay with Staphylococcus aureus [4] (5 min), 33.2% in the assay with Staphylococcus aureus [4] (1 hour), 83.8% in the assay with Escherichia coli [5] (5 min) and 100% with Escherichia coli [5] (1 hour).

On to `CCCCC1CC(C)=CC(O)C1` (stereo not shown) [3-Methyl-5-Butyl-2-Cyclohexenol, 3-methyl-5-butyl-2-cyclohexenol], for which the MIC against Aspergillus brasiliensis is 250 µg/mL (≈ 1.49 mM); in the assay on Pseudomonas aeruginosa, above 1000 µg/mL; in the assay with Staphylococcus aureus [1], 125 µg/mL (≈ 0.743 mM); in the assay on Escherichia coli [2] it was above 1000 µg/mL; in the assay with Candida albicans it was 125 µg/mL (≈ 0.743 mM); in assay [3], 125 µg/mL (≈ 0.743 mM). In addition, the inhibition at 2000 ppm in the assay with Staphylococcus aureus [4] (5 min) was 28.4%; in the assay on Staphylococcus aureus [4] (1 hour) it was 39%; in the assay with Escherichia coli [5] (5 min), 34.7%; with Escherichia coli [5] (1 hour), 88.5%.
